Assays:
[1] = test system: HCT-116 cells; assay: TP53 CRISPR-barcoding (TP53-STOP vs TP53-WT barcode, qPCR) in HCT-116 cells; format: cell-based; details: relative to TP53-WT control barcode
Procedure: (§1) 293T (human embryonic kidney), DLD-1, HCT-116 (colorectal carcinoma), MCF-7 (breast cancer) were obtained from ATCC, PC9 cells (NSCLC) were obtained from ECACC-Sigma-Aldrich, Kelly cells (neuroblastoma) were a kind gift from Dr. C. Einvik. All cells were grown in Dulbecco's modified Eagle's Medium (Life technologies) except Kelly and PC-9 cells, grown in Roswell Park Memorial Institute medium (Life technologies), both supplemented with 10% fetal bovine serum (FBS, Life Technologies) and 0.6% penicillin/streptomycin (Life technologies). Cells were transfected with a Nucleofector II device (Lonza) using the Amaxa Nucleofector kit (Lonza) and electroporation program recommended by the manufacturer. 293T cells were transfected using polyethylenimine (Polysciences). The efficiency of each transfection was assessed in parallel using a GFP-containing plasmid. […]
(§2) gDNA was extracted using the NucleoSpin Tissue kit (Macherey-Nagel). […] Primer specificity for each particular barcode was assessed. qPCR was performed from 100 ng of gDNA using SYBR Green (Life Technologies) on a 7900 HT Fast-Real-Time, a Q-PCR ABI PRISM 7500 or a QuantStudio Flex PCR System (Life Technologies). qPCR analysis was performed using the standard curve or the Pfaffl methods (Pfaffl, 2001).

[2] = test system: MCF7 cells; assay: TP53 CRISPR-barcoding (TP53-STOP vs TP53-WT barcode, qPCR) in MCF7 cells; format: cell-based; details: relative to TP53-WT control barcode
Procedure: as §1, §2

[3] = test system: PC9 cells; assay: Mouse xenografts of multiplex CRISPR-barcoded PC9 cells; format: in vivo, SCID mice
[4] = test system: PC9 cells; assay: EML4-ALK inversion barcoding in PC9 cells; format: cell-based
[5] = test system: PC9 cells; assay: KRAS-G12 CRISPR-barcoding in PC9 cells; format: cell-based; details: PC9 cells treated in the presence or absence of inhibitor
Excerpt: CRISPR Barcoding sgRNA target sequences (See Sequence Listing—SEQ ID No 1-14) were designed using the CRISPR Design tool hosted by the Massachusetts Institute of Technology (see the website located at crispr.mit,edu) to minimize potential off-target effects. Oligos encoding the targeting sequence were then annealed and ligated into the pSpCas9(BB)-2A-Puro (Ran et al., 2013) vector digested with Bbsl (New England Biolabs). The sequence of the ssODNs (Integrated DNA Technologies) used for CRISPR/Cas9-mediated HDR, containing one missense/nonsense mutation coupled with different silent mutations, are provided in the sequence listing (SEQ ID No 15-29). The set of silent mutations is designed to enable PCR specificity and to avoid recognition by the corresponding sgRNA used to cleave the endogenous sequence. For each targeted locus, cells were co-transfected with 2 μg of the CRISPR/Cas9 plasmid and […] of either the control or the sense/nonsense ssODN (50 μM). […]
as §2, with “2001). […]” for “2001).”

For COc1ccc(C2=N[C@@H](c3ccc(Cl)cc3)[C@@H](c3ccc(Cl)cc3)N2C(=O)N2CCNC(=O)C2)c(OC(C)C)c1 (racemic) [Nutlin 3], the “fraction of cells containing the TP53-STOP barcode” value (from here on “fraction”) [1] was “significantly increased” and the “fraction” value [2] was “significantly increased”.

For COc1cccc2c1C(=O)c1c(O)c3c(c(O)c1C2=O)C[C@@](O)(C(=O)CO)C[C@@H]3O[C@H]1C[C@H](N)[C@H](O)[C@H](C)O1 [doxorubicin], the “fraction” value [1] was “did not affect” and the “fraction” value [2] was “did not affect”.

COc1cc2ncnc(Nc3ccc(F)c(Cl)c3)c2cc1OCCCN1CCOCC1 [gefitinib] was tested, and the “growth of the tumors” value ([3]; 25 mg/kg/day by gavage, from day 16 after injection) was “initially arrested upon gefitinib treatment, but it eventually resumed after a few weeks”, the “proportion of all three mutations (EGFR-T790M, KRAS-G12D, EML4-ALK) in the tumors” value ([3]; 25 mg/kg/day, qPCR, normalized to cells prior to injection) was “strongly increased” and the “enrichment of EML4-ALK containing PC9 cells” value [4] was “induced an enrichment”. For the same compound, the “enrichment of KRAS-G12D cells” value [5] was “significant enrichment”.

Reference: patent US11371040B2, “Endonuclease-barcoding” (priority 2015, dated 2022)
